Results as given in patent publication US7494714B2, “Surfaces that resist the adsorption of biological species” (President & Fellows of Harvard College, priority 2000, dated 2009).

Legend:
[1] = molecular target: T1, Carbonic anhydrase II (bovine) (Bos taurus, UniProt P00921); assay: SPR binding of CA to immobilised benzene sulfonamide ligands
T1 construct: purchased Sigma (St. Louis, Mo.)
Protocol: Curve 1: CA (5 μM) with a mixture of proteins (each at 0.2 mg/mL) including fibrinogen, RNase, lysozyme, and myoglobin; Curve 2: CA (5 μM); Curve 3: a mixture of proteins as in 1 without CA; Curve 4: CA (5 μM) with 1 mM soluble benzenesulfonamide ligand.

CA = CA (Bos taurus, UniProt P00921); conditions: soluble ligand; cited from earlier work
[2] = test system: mixture of fibrinogen, myoglobin, lysozyme, and RNase; assay: SPR nonspecific adsorption from a mixture of proteins; format: binding; conditions: mixed SAM presenting 13 and —CONH(CH2CH2O)6H/—CO2H groups
fibrinogen = molecular target: T2, fibrinogen (Bos taurus, UniProt P02672+P02676+P12799); assay: SPR adsorption of fibrinogen to SAMs / grafted polymer films; format: binding, bovine; conditions: mixed SAM —CONRR′/—CO2H
T2 sequence (P02672 20-615): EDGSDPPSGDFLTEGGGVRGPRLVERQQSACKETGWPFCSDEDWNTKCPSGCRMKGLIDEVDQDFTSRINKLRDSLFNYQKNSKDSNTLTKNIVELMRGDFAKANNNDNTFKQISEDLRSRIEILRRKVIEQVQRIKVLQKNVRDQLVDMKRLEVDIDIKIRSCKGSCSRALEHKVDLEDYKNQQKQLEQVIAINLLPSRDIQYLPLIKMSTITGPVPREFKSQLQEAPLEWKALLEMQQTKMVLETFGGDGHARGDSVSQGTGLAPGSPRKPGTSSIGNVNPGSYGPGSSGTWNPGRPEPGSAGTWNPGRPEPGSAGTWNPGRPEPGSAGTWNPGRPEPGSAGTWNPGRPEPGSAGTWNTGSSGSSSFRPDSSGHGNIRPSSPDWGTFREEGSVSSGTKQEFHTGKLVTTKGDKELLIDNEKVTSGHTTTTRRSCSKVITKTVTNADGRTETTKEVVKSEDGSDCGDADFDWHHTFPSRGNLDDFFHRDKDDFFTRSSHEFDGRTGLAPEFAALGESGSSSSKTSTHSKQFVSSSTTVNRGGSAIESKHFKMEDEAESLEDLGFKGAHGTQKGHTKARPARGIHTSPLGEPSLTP
T2 sequence (P02676 1-468): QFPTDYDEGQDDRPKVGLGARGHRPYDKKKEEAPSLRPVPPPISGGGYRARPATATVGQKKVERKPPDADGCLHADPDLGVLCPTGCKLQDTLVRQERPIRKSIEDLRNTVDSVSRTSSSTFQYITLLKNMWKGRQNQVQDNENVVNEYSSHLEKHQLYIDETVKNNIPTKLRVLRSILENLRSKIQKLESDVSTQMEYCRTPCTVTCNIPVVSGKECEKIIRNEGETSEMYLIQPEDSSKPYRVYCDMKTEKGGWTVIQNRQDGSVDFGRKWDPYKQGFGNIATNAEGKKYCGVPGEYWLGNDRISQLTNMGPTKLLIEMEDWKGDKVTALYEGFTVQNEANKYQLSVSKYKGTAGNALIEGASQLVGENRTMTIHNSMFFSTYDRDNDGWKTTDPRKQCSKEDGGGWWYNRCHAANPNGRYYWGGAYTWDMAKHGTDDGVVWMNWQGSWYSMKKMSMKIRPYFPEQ
T2 sequence (P12799 25-444): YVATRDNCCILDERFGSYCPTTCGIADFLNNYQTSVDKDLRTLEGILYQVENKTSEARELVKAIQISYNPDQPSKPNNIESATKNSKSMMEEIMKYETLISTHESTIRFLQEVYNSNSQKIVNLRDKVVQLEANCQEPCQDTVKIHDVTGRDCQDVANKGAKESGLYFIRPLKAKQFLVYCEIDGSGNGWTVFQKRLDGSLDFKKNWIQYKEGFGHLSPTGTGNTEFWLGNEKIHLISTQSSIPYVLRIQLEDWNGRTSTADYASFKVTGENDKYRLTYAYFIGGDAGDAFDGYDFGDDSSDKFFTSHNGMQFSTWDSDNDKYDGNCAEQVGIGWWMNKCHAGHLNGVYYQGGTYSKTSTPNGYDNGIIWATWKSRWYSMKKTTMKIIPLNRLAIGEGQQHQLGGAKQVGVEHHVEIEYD

lysozyme = lysozyme (Gallus gallus, UniProt P00698); assay: SPR adsorption of lysozyme to SAMs / grafted polymer films; format: binding; conditions: mixed SAM —CONRR′/—CO2H
lysozyme, sequence (P00698 19-147): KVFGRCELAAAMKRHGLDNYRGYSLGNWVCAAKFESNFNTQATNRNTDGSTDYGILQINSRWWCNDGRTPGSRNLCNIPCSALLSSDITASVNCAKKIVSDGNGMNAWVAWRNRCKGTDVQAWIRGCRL

[3] = Contact angle of deionized water under cyclooctane; format: physicochemical; conditions: mixed SAM

T1 sequence (P00921 whole entry): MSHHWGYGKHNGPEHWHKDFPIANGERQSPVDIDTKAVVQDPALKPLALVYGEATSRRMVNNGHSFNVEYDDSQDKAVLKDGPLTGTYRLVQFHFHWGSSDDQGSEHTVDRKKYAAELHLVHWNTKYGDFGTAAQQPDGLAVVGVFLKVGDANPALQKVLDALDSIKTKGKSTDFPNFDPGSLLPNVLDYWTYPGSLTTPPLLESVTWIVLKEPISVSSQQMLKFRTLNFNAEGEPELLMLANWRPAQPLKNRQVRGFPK
CA, sequence (P00921 whole entry): as above

Compound: COC(=O)CNC(=O)c1ccc(S(N)(=O)=O)cc1 [benzene sulfonamide 14, H2NSO2C6H4—CONHCH2CO2CH3, reference compound]
- competitive inhibition of binding of CA to the mixed SAM presenting 13 ([1]; 1 mM added to the CA-containing solution): completely inhibited
- Kd (CA): 63 µM

Compound: NCCOCCOCCOCCOCCOCCOCC(=O)NCCCCCCNC(=O)c1ccc(S(N)(=O)=O)cc1 [compound 13, [6-(2-{2-[2-(2-{2-[2-(2-Amino-ethoxy)-ethoxy]-ethoxy}-ethoxy)-ethoxy]-ethoxy}-ethanoylamino)-hexyl]-4-sulfamoyl-benzamide]
- nonspecific adsorption of protein [2]: did not adsorb a detectable amount of protein
- reversibility of binding of CA ([1]; CA 5 μM in PBS, mixed SAM presenting 13): > 90%
- kon ([1]; SPR, CA 5 μM in PBS, surfaces of this work (entry 4, LPEI entries 6-9)): 13000 M^-1S^-1
- koff ([1]; SPR, surfaces of this work (entry 4, LPEI entries 6-9)): 0.0054 S^-1

Compound: H(CH3)NCH2CH(OCH3)2
- % Fiboff (percent decrease in adsorbed protein during 10 minute PBS wash) (fibrinogen): 15 ± 4%
- dR/dton fibrinogen (maximum initial rate of adsorption) (fibrinogen): 510 ± 400 RU/sec
- % MLfib 3 min (fibrinogen; 1 mg/mL fibrinogen flowed 3 min, relative to —CONH(CH2)10CH3/—CO2H SAM): 16 ± 2%
- % MLfib 30 min (fibrinogen; 1 mg/mL fibrinogen flowed 30 min): 36 ± 1%
- % Lysoff (percent decrease in adsorbed protein during 10 minute PBS wash) (lysozyme): 190 ± 2%
- dR/dton lysozyme (maximum initial rate of adsorption) (lysozyme): 740 ± 300 RU/sec
- % MLlys 3 min (lysozyme; 1 mg/mL lysozyme flowed 3 min): 4.6 ± 2%
- % MLlys 30 min (lysozyme; 1 mg/mL lysozyme flowed 30 min): 19 ± 5%
- θco sessile [3]: 70 degrees
